From US20060058227A1, “Hedgehog-related prophylaxis, therapy and diagnosis of gi tract carcinogenesis” (Academisch Ziekenhulis bij de Universiteit van Amsterdam, priority 2002, published 2006) come the findings set out here.

Experiment [1] relates to HT-29 cells. Kind of experiment: Butyrate induced differentiation of HT-29 cells, with or without cyclopamine (Western blot). It is filed as cell-based. The conditions noted are these: HT-29 cultures, 2 μ/ml cyclopamine plus butyrate, 24 hours, Western blot (FIGS. 13a,b). As to the method:
(§1) The distal half of the rat colon was dissected along the longitudinal axis and one half was homogenised and processed for Western blotting as described below. Murine stomach and small intestine were homogenised in lysis buffer (300 mmol/L NaCl, 30 mmol/L Tris, 2 mmol/L MgCl2, 2 mmol/L CaCl2, 1% Triton X-100, pH 7.4, supplemented with 1 tablet of protease inhibitor [Roche] per 50 ml). Protein concentration was measured using the Bradford method. Lysates were diluted 1:3 in protein sample buffer (125 mmol/L Tris/HCl, pH 6.8; 4% sodium dodecyl sulfate; 2% β-mercaptoethanol; 20% glycerol, 1 mg bromophenol blue), and 100-200 μof homogenate was loaded per lane on a sodium dodecyl sulfate-pol-yacrylamide gel electrophoresis gel. After protein separation, the proteins were blotted on to a PVDF membrane (Millipore, Bedford, Mass.). Membranes were blocked with 2% protifar (Nutricia, Zoetermeer, The Netherlands) in phosphate-buffered saline (PBS), supplemented with 0.1% Tween-20 for 1 hour at room temperature. After a brief wash in washing buffer (0.2% protifar; 0.1% Tween-20), membranes were incubated overnight at 4° C. with antibody diluted in washing buffer at the indicated concentration. The next day, membranes were washed 3 times for 5 minutes each and subsequently incubated with a secondary horseradish peroxidase tHRP)-conjugated antibody in a 1:2000 dilution. After enhanced chemoluminescence using Lumilight^+ substrate (Roche, Mannheim, Germany), antibody binding was visualised using a Lumi-Imager (Boehringer Mannheim, Mannheim, Germany).
HT 29 colon cancer cell lines were cultured according to routine procedures in the presence of 10% fetal calf serum (GIBCO). Recombinant Shh (R&D systems) was used at the indicated concentrations; Butyrate (Sigma) was used at a 5 mM concentration.
On the technique in general: In western blotting, separated proteins are transferred to a membrane and probed.

The subject of experiment [2] is colonic epithelial cell differentiation. Nature of the experiment: Cyclopamine treatment of rats: markers of colonic epithelial differentiation (Western blot, H&E, immunohistochemistry). It is filed as in vivo, rat. The conditions noted are these: for carbonic anhydrase (CA) IV expression in enterocytes / intestinal trefoil factor expression in the enterocytes / Villin distribution in enterocytes: rat colon; for carbonic anhydrase (CA) IV expression in enterocytes: CA IV immunohistochemistry, cyclopamine treated vs control (FIG. 11G,H); for intestinal trefoil factor expression in the enterocytes: ITF immunohistochemistry, cyclopamine treated vs control (FIG. 11I-L); for Villin distribution in enterocytes: Villin immunohistochemistry, cyclopamine treated vs control (FIG. 11E,F); for enterocyte maturation / terminal differentiation of enterocytes in the colon: H&E and immunohistochemistry. The method, then:
(§2) Formalin fixed paraffin embedded human biopsy and resection specimens of uninflamed colonic mucosa, sporadic adenomas, sporadic carcinomas and adenomas from patients with FAP were obtained from the archives of the pathology department of the Academic Medical Center following institutional standards for human subject research. Immunohistochemistry was performed on 4μ sections using a three-step diaminobenzidine (DAB) detection method with antigen retrieval as described in detail previously (van den Brink et al., 2000). For BrdU visualisation, sections were incubated in 2N HCl at 37° C. for 60 minutes after deparaffinization and then washed in boric acid pH 8.5. Sections were counterstained with Mayer's hematoxylin, except when stained for HNF3β, engrailed-1 or β-catenin to allow optimal visualisation of nuclear staining. BrdU positive nuclei were scored as described (van den Brink et al., 2001).
as §1
(§3) In addition to the mice described above, 8-week-old female Wistar rats (n=7) were treated with daily intraperitoneal injections of 1 mg/kg of the Hedgehog inhibitor cyclopamine complexed with 2-hydroxypropyl-β-cyclodextrin (HBC; Sigma) as described (van den Brink et al., 2001). Control rats (n=7) received solvent only. After 14 days, rats were given a single intraperitoneal injection of 150 mg/kg BrdU one hour before being killed.
(§4) The distal half of the rat colon was dissected along the longitudinal axis and one half was homogenised and processed for Western blotting as described (van den Brink et al., 2001). To study Shh expression in the human GI tract we used specimens from the archives of the department of pathology of the Academic Medical Center and the Department of Pathology of the Massachusetts General Hospital and Brigham and Women's Hospital. We examined tissue with normal histology of at least 6 different patients to investigate each site along the normal GI tract for Shh expression. Other specimens included: tissue from 16 different patients with intestinal metaplasia of the stomach, 13 resection specimens of Meckel's diverticulum and 6 resection specimens of patients with Barrett's esophagus.

The subject of experiment [3] is Hh signalling. Nature of the experiment: Cyclopamine treatment of rats: Western blots of putative Hedgehog regulated proteins in colonic homogenates. In kind it is in vivo. The conditions noted are these: adult rat colon homogenate, Western blot. The method, then: as §1, §3, §4
In experiment [4] the test system is precursor cell proliferation in the adult colon. Nature of the experiment: Cyclopamine treatment of rats: markers of proliferation in the adult colon (Western blot, BrdU labelling). It is filed as in vivo, rat. As to the method:
as §2, §1
In addition to the mice described above, 8-week-old female Wistar rats (n=7) were treated with daily intraperitoneal injections of 1 mg/kg of the Hedgehog inhibitor cyclopamine complexed with 2-hydroxypropyl-β-cyclodextrin (HBC; Sigma) as described (van den Brink et al., 2001). Control rats (n=7) received solvent only. […]

On to `CC1=C2C[C@H]3[C@@H](CC=C4C[C@@H](O)CC[C@@]43C)[C@@H]2CC[C@]12O[C@@H]1C[C@H](C)CN[C@H]1[C@H]2C` [cyclopamine], for which, in experiment [1], the “butyrate mediated induction of E-cadherin” value is “significantly reduced”, the “butyrate mediated induction of Villin” value is “significantly reduced” and the “butyrate mediated induction of cip-1” value is recorded as “significantly reduced”. Besides, the “Intestinal trefoil factor (ITF/TFF3) expression, goblet cell lineage marker” value in experiment [2] (adult rat colon homogenate, Western blot, cyclopamine 1 mg/kg i.p. daily for 14 days (FIG. 4, P=0.008)) is “strong induction”. Further, the “expression of Villin, marker of enterocyte differentiation” value in experiment [2] (adult rat colon homogenate, Western blot, cyclopamine 1 mg/kg i.p. daily for 14 days (FIG. 4, P=0.02)) is given as “reduced”. For the same molecule, in experiment [2], the “carbonic anhydrase (CA) IV expression in enterocytes” value is recorded as “loss”, the “intestinal trefoil factor expression in the enterocytes” value is “induction” and the “Villin distribution in enterocytes” value was “villin-redistribution”. In experiment [2] (listed as Cyclopamine), the “carbonic anhydrase (CA) IV expression in enterocytes” value is reported as “Loss”; the “intestinal trefoil factor expression in the enterocytes” value was “strong immunoreactivity”; the “Villin distribution in enterocytes” value is “apical staining is diminished and cytoplasmic staining enhanced”. For the same molecule, the “enterocyte maturation / terminal differentiation of enterocytes in the colon” value in experiment [2] (rat distal colon, cyclopamine treated vs control (FIG. 11)) is on record as “inhibited”. Also, the “enterocyte maturation / terminal differentiation of enterocytes in the colon” value in experiment [2] (rat distal colon, cyclopamine treated vs control (FIG. 11), listed as Cyclopamine) is on record as “disturbs”. Besides, the “histoarchitecture of the colon” value in experiment [2] (rat distal colon, H&E, cyclopamine treated vs control (FIG. 11)) is on record as “dramatic changes”. For the same molecule, the “levels of BMP4” value in experiment [3] (cyclopamine 1 mg/kg i.p. daily for 14 days vs solvent controls (FIG. 3, P=0.0001)) is listed as “markedly induced”. Also, the HNF3β protein level result in experiment [3] (cyclopamine 1 mg/kg i.p. daily for 14 days vs solvent controls (FIG. 3, P=0.001)) is “dramatically upregulated”. Also, the engrailed-1 protein level result in experiment [3] (cyclopamine 1 mg/kg i.p. daily for 14 days vs solvent controls (FIG. 3, P=0.002)) was “dramatically upregulated”. For the same molecule, the GATA-6 protein level entry in experiment [3] (cyclopamine 1 mg/kg i.p. daily for 14 days vs solvent controls (FIG. 3, P=0.005)) is on record as “significantly downregulated”. Also, in experiment [3] (cyclopamine 1 mg/kg i.p. daily for 14 days vs solvent controls (FIG. 3, P=0.08)), the “Ihh expression under Hh inhibition” value is on record as “not necessary for maintenance of its own expression”. Moreover, in experiment [3] (cyclopamine 1 mg/kg i.p. daily for 14 days vs solvent controls (FIG. 3, P=0.25)), the “expression levels of BMP-2” value is “no effect”. In addition, in experiment [4] (adult rat colon homogenate, Western blot, cyclopamine 1 mg/kg i.p. daily for 14 days (FIG. 4, P<0.0001)), the “expression of PCNA” value is given as “increased”. Further, the “expression of cyclin D1” value in experiment [4] (adult rat colon homogenate, Western blot, cyclopamine 1 mg/kg i.p. daily for 14 days (FIG. 4, P=0.01)) is recorded as “increased”. In addition, the “mitogenesis (PCNA, cyclin D1, BrdU labelled epithelial precursor cells)” value in experiment [4] (adult rat colon, cyclopamine treated vs control (FIG. 12)) is “enhanced”. Also, the “incorporation of 5-bromo-2′-deoxyuridine (BrdU labelled cells per crypt)” value in experiment [4] (adult rat colon, cyclopamine 1 mg/kg i.p. daily for 14 days, BrdU 150 mg/kg one hour before killing (FIG. 4, P=0.036)) was “increased”.
